In patent US11819021B2, “Peptides and methods and uses thereof for modulating anaphase promoting complex (APC) activity” (University of Saskatchewan, priority 2017, dated 2023):
Entries after “also recorded” stand apart in the source; their conditions may differ.

Columns and labels:
[1] = system: MCF7 human breast cancer cells selected for resistance to Tamoxifen; assay: Trypan Blue viability of drug resistant MCF7 breast cancer cells; format: cell-based
Experimental: (§1) A. Parental MCF7 human breast cancer cells, or cells selected for resistance to Tamoxifen, were treated with 1 or 5 μM M2I-1. Tamoxifen resistant cells were also treated with both Doxorubicin and M2I-1. Trypan Blue. (3 rpts). ND, no data. B. Protein lysates were prepared from the cells used in A. The APC target HURP was measured using antibodies against HURP. C. Trypan Blue was used to measure viability of OSW canine lymphoma cells pretreated with 1 μmol M2I-1 (18 hrs), followed by 1 μmol DOX (48 hrs). Parental cells were only treated with monotherapy (3 rpts). ND, no data. D. OSW matched cells treated with the APC activator M2I-1 were prepared for APC substrate westerns E. Quantification of western protein abundance (3 rpts).
(§2) Drug resistant human breast cancer cells in culture were treated with the M2I-1 activator.

HURP = assay: Western of APC substrates in drug resistant MCF7 cells; format: cell-based; conditions: drug resistant human breast cancer cells
Experimental: as §1, §2

Cyclin B = assay: Western of APC substrate abundance in PDX tumor; format: in vivo, mouse; conditions: 25 mg/kg, after sacrifice on Day 6
Experimental: (§3) A. In vivo study of M2I-1 impact on human breast tumor (4-28 PDX). Single 25 mg/kg i.p. injection (treatment) versus mock (DMSO) day 1, tumor size measured daily. B. Western analysis of apoptosis (PARP cleavage—24 kDa band) and APC substrate abundance (Cyclin B) in liver and tumor of treated and control after sacrifice on Day 6.
(§4) A mouse model for growing patient derived breast tumor cells obtained from a patient with triple negative breast cancer was developed. This patient had developed resistance to Doxorubicin. Tumors growing in these mice grow rapidly. A mouse was injected with 25 mg/kg M2I-1.

[2] = system: OSW canine lymphoma cells; assay: Trypan Blue viability of drug resistant OSW lymphoma cells; format: cell-based; conditions: OSW dog lymphoma cells selected for drug resistance; 1 μmol M2I-1 (18 hrs) then 1 μmol DOX (48 hrs)
Experimental: as §1, §2

[3] = system: human breast tumor (4-28 PDX); assay: Tumor growth in mouse model of patient derived triple negative breast cancer (4-28 PDX); format: in vivo; conditions: single 25 mg/kg i.p. injection, Doxorubicin resistant TNBC PDX mouse
Experimental: as §3, §4

[4] = system: apc5^CA temperature sensitive mutant; assay: Forward genetic screen: rescue of apc5^CA temperature sensitive growth; format: cell-based, yeast
Text: Using a forward genetic screen to test whether temperature sensitive (ts) APC mutants expressing random small peptides could grow at restrictive temperatures, millions of small peptides were rapidly screened for those that could restore mutant APC phenotypes. Peptides that rescued the apc5^CA ts (temperature sensitive) defect were recovered including peptides Y65 and Y36.
In the forward screens, with galactose-inducible TrxA-based peptide libraries, in cells harboring the apc5^CA ts allele, over 200 peptides (from millions screened) suppressed the ts phenotype. Several recovered plasmids were sequenced.

APC = assay: Yeast 2-hybrid binding to the APC
Text: As used herein, the expression “binds to the APC” refers to a peptide that binds to at least one subunit of the APC, for example Apc5 or Apc10. Binding can be measured for example, by any method known in the art, including, but not limited to a yeast 2-hybrid assay.
The reverse genetic screen utilized a yeast 2-hybrid (Y2H) protocol that selected for peptides that bound to the APC subunits Apc5 or Apc10 (see FIG. 5 for APC structure), to assess whether peptide-binding might modify APC function. Peptides that bound APC subunits were then assayed for those that suppressed APC mutant defects.
Random small peptides were cloned into the TrxA scaffold (library provided by R. Geyer, U of S) and expressed from a galactose-inducible Y2H prey vector in cells harboring either APC5 or APC10 Y2H bait vectors (APC5/APC10 bait constructs complement APC mutant defects).

Cin5 = target: T1, Cin5 (Saccharomyces cerevisiae, UniProt P40917); assay: Yeast 2-hybrid with Y65 bait to identify binding partners
T1 construct: expressed in transfected cells; host or cells: yeast Y2H cells
T1 sequence (P40917 1-295): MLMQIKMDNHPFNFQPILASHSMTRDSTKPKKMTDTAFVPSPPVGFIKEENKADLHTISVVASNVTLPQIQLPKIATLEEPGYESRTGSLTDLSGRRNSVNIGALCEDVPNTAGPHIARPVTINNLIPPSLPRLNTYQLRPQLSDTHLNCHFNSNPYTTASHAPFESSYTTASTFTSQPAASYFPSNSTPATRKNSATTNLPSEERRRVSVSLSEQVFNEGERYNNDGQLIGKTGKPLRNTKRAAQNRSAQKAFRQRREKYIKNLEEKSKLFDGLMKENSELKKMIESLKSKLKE
Text: One peptide in particular, Y65, was of interest because it had homology to Elongin C (Elc1; Y65 is 20 amino acids in length, with a 7 residue stretch sharing 86% identity and 100% similarity with Elc1). Elc1 is a ubiquitin-protein ligase (E3) conserved among eukaryotes that is involved in DNA repair (Harreman et al, 2009; Ribar et al, 2007). To identify what the peptides bound in order to modify APC activity, Y65 was cloned into the Y2H bait vector and used to identify binding partners.

Question: Which “Growth / toxicity of activator alone in drug resistant breast cancer cells” value ([1]; 1 or 5 μM, 18 hrs, Trypan Blue) does the source give for `CC(C)CN(CC(C)C)c1ccc(C=C2C(=O)NC(=S)NC2=O)cc1[N+](=O)[O-]` [M2I-1, Mad2 Inhibitor-1] here?
Answer: did not impair the growth; also recorded: not toxic

Question: What about the “Cell killing / toxicity in combination with chemotherapy (Doxorubicin)” value ([1]; Tamoxifen resistant MCF7 cells) of the same molecule?
Answer: only in the presence of M2I-1 were cells killed; also recorded: enhances toxicity

Question: And the “Levels of APC substrates” value (HURP)?
Answer: reduced

Question: What about the “Markers of APC substrates in the tumor” value (Cyclin B) of the same molecule?
Answer: positive for APC activation

Question: What about the “Cell killing in combination with chemotherapy” value [2] of the same molecule?
Answer: only in the presence of M2I-1 were cells killed

Question: And the Tumor growth [3]?
Answer: stalled

Question: How did the “apc5^CA temperature sensitive (ts) growth / viability of an apc5 temperature sensitive mutant” value [4] turn out when “VRQKSDKEYERVLGLGLRRL [Y65, Peptide with homology to Elc1]” was run?
Answer: increases the viability; also recorded: rescued; also recorded: Rescues apc5^CA temperature

Question: And the “Binding to the APC in a yeast 2HY assay” value (APC)?
Answer: not bind the APC in a yeast 2HY

Question: And the “Interaction with Cin5 in a yeast 2 hybrid assay” value (Cin5)?
Answer: One peptide binding partner was isolated, Cin5; also recorded: Interacts with Cin5 in a yeast 2
